Test results from patent US20220396818A1, “POLYNUCLEOTIDE SYNTHESIS METHOD, KIT AND SYSTEM” (Oxford Nanopore Technologies PLC, priority 2019, published 2022).

Legend:
[1] = test system: Therminator X DNA polymerase; assay: Incorporation of 3′-O-azidomethyl-dNTPs to the 3′ end of blunt-ended DNA by Therminator X DNA polymerase (gel); format: biochemical, Thermococcus species 9° N; conditions: presence of Mn2+ ions, 37° C.
Experimental: • 1. 5 μl of 10× Thermopol® buffer (20 mM Tris-HCl, 10 mM (NH4)2SO4, 10 mM KCl, 2 mM MgSO4, 0.1% Triton® X-100, pH 8.8, New England Biolabs) was mixed with 33.5 μl of sterile deionized water (ELGA VEOLIA) in a 1.5 ml Eppendorf tube. • 2. 2 μl of 20 μM primer (40 pmol, 1 equiv) (SEQ ID: NO: 68, FIG. 56a) and 3 μl of 20 μM template (60 pmol, 1.5 equiv) (SEQ ID: NO: 69, FIG. 56a) were added to the reaction mixture. • 3. 3′-O-modified-dTTP (2 μl of 100 μM) and MnCl2 (2.5 μl of 40 mM) were added. • 4. 2 μl of Therminator X DNA polymerase (20 U, New England BioLabs) was then added. • 5. The reaction was incubated for 30 minutes at 37° C. • 6. The reaction was stopped by addition of TBE-Urea sample buffer (Novex). • 7. The reaction was separated on polyacrylamide gel (15%) TBE buffer and visualized by ChemiDoc MP imaging system (BioRad).

DNA containing inosine [2] = assay: Two-step cleavage of inosine-containing oligonucleotide with hAAG and base or Endo VIII (gel); format: biochemical
Experimental: A cleavage reaction on oligonucleotides was carried out using the procedure below: • 1. A pipette (Gilson) was used to transfer 41 μl sterile distilled water (ELGA VEOLIA) into a 1.5 ml Eppendorf tube. • 2. 50 of 10× ThermoPol® reaction buffer NEB (20 mM Tris-HCl, 10 mM (NH4)2SO4, 10 mM KCl, 2 mM MgSO4, 0.1% Triton® X-100, pH 8.8) were then added into the same Eppendorf tube. • 3. 10 each of oligonucleotides (FIG. 18e); template (SEQ ID NO: 3) or any fluorescently tagged long oligo strand, primer with T (SEQ ID NO: 4) and control (SEQ ID NO: 5) all at 5 pmols were added into the same tube. • 4. 10 of Human Alkyladenine DNA Glycosylase (hAAG) NEB (10 units/0) was added into the same tube. • 5. Reaction mixture was then gently mixed by resuspension with a pipette, centrifuged at 13,000 rpm for 5 seconds and incubated at 37° C. for 1 hour. • 6. Typically after incubation time had elapsed, the reaction was terminated by enzymatic heat inactivation (i.e. 65° C. for 20 minutes).
• 1. 2 μl (10-100 ng/0) DNA was added into a sterile 1.5 ml Eppendorf tube. • 2. 40 μl (0.2M) NaOH or 1.5 μl Endo VIII NEB (10 units/0) and 5 μl 10× Reaction Buffer NEB (10 mM Tris-HCl, 75 mM NaCl, 1 mM EDTA, pH 8 @ 25° C.) was also added into the same tube and gently mixed by resuspension and centrifugation at 13000 rpm for 5 sec. • 3. […]

[3] = test system: Therminator IX DNA polymerase; assay: Incorporation of 3′-O-modified-dNTPs opposite complementary base by Therminator IX DNA polymerase, with helper strand (gel); format: biochemical, Thermococcus species 9° N
Experimental: • 1. 2 μl of 10× Thermopol® buffer (20 mM Tris-HCl, 10 mM (NH4)2SO4, 10 mM KCl, 2 mM MgSO4, 0.1% Triton® X-100, pH 8.8, New England BioLabs) was mixed with 12.25 μl of sterile deionized water (ELGA VEOLIA) in 1.5 ml Eppendorf tube. • 2. 0.5 μl of 10 μM primer (5 pmol, 1 equiv) (SEQ ID NO: 22, FIG. 23j) and 0.75 μl of 10 μM template-A/G/T/C ([…], 1.5 equiv) (SEQ ID NOS: 23 to 26, FIG. 23j) and 1 μl of 10 μM helper strand-T/C/A/G (10 pmol, 2 equiv) (SEQ ID NOS: 27 to 30, FIG. 23j) were added to the reaction mixture. • 3. 3′-O-modified-dTTP/dCTP/dATP/dGTP (2 μl of 100 μM) and MnCl2 (1 μl of 40 mM) were added. • 4. 1.5 μl of Therminator IX DNA polymerase (15 U, New England BioLabs) was then added. • 5. […] The reaction was stopped by addition of TBE-Urea sample buffer (Novex). • 7. The reaction was separated on polyacrylamide gel (15%) TBE buffer and visualized by ChemiDoc MP imaging system (BioRad).
• 1. 5 μl of reaction mixture was added to 5 μl of TBE-Urea sample buffer (Novex) in a sterile 1.5 ml Eppendorf tube and heated to 95° C. for 5 minutes using a heat ThermoMixer (Eppendorf). • 2. 5 μl of the sample were then loaded into the wells of a 15% TBE-Urea gel 1.0 mm×10 well (Invitrogen) which contained preheated 1×TBE buffer Thermo Scientific (89 mM Tris, 89 mM boric acid and 2 mM EDTA). • 3. […]

DNA containing inosine [4] = assay: One-step cleavage of oligonucleotide with Endonuclease V (gel); format: biochemical; conditions: 37° C.
Experimental: Cleavage reaction on oligonucleotides was carried out using the procedure below: • 1. A pipette (Gilson) was used to transfer 41 μl sterile distilled water (ELGA VEOLIA) into a 1.5 ml Eppendorf tube. • 2. 50 of 10× Reaction Buffer® NEB (50 mM Potassium Acetate, 20 mM Tris-acetate, 10 mM Magnesium Acetate, 1 mM DTT, pH 7.9@25° C.) was then added into the same Eppendorf tube. • 3. 1 μl each of oligonucleotides (FIG. 24d); Template (SEQ ID NO: 31) or any fluorescently tagged long oligo strand, Primer with T (SEQ ID NO: 32) and control (SEQ ID NO: 33) and helper strand (SEQ ID NO: 34), all at 5 pmols, were added into the same tube. • 4. 1 μl of Human Endonuclease V (Endo V) NEB (10 units/μl) was added into the same tube. • 5. Reaction mixture was then gently mixed by resuspension with a pipette, centrifuged at 13,000 rpm for 5 seconds and incubated at 37° C. for 1 hour. • 6. Typically after incubation time had elapsed, reaction was terminated by enzymatic heat inactivation (i.e. 65° C. for 20 minutes).
(§1) • 1. 5 μl of DNA and TBE-Urea sample buffer (Novex) was added into a sterile 1.5 ml Eppendorf tube and heated to 95° C. for 2 minutes using a heat thermoblock (Eppendorf). • 2. The DNA mixtures were then loaded into the wells of a 15% TBE-Urea gel 1.0 mm×10 well (Invitrogen) which contained preheated 1×TBE buffer Thermo Scientific (89 mM Tris, 89 mM boric acid and 2 mM EDTA). • 3. X-cell sure lock module (Novex) was fastened in place and electrophoresis performed at the following conditions; 260V, 90 Amps for 40 minutes at room temperature. • 4. Detection and visualization of DNA in the gel was carried out with Chemidoc MP (BioRad) using Cy3 LEDS. Visualization and analysis was carried out on the Image lab 2.0 platform.

Hairpin Oligonucleotide = assay: Cleavage of hairpin oligonucleotide with Endonuclease V (gel); format: biochemical; conditions: 37° C.
Experimental: Cleavage reaction on hairpin oligonucleotides was carried out using the procedure below: • 1. A pipette (Gilson) was used to transfer 43 μl sterile distilled water (ELGA VEOLIA) into a 1.5 ml Eppendorf tube. • 2. 50 of 10× Reaction Buffer® NEB (50 mM potassium acetate, 20 mM Tris-acetate, 10 mM magnesium acetate, 1 mM DTT, pH 7.9@25° C.) was then added into the same Eppendorf tube. • 3. 111 of hairpin oligonucleotide (SEQ ID NO: 45, FIG. 28c) having an amount of 5 pmols was added into the same tube. • 4. 10 of Human Endonuclease V (Endo V) NEB (30 units/μl) was added into the same tube. • 5. […] Typically after incubation time had elapsed, the reaction was terminated by enzymatic heat inactivation (i.e. 65° C. for 20 minutes).
as §1, with “ThermoMixer” for “thermoblock”, “ChemiDoc” for “Chemidoc”

3′-O-azidomethyl-dGTP
Incorporation efficiency [1]: > 99%

hAAG DNA glycosylase: Human Alkyladenine DNA Glycosylase (hAAG) NEB
yield of cleaved DNA (cleaved to uncleaved DNA ratio) (DNA containing inosine [2]; with a helper strand): 50%
yield of cleaved DNA (cleaved to uncleaved DNA ratio) (DNA containing inosine [2]; without a helper strand): 10%

3′-O-azidomethyl-dATP
Incorporation efficiency [1]: > 99%

3′-O-azidomethyl-dTTP
Incorporation efficiency [1]: > 99%
primer remains unextended ([3]; after 20 minutes at 37° C. and 47° C.): 10%
Incorporation ([3]; in the presence of a helper strand, after 5 minutes): 90%

3′-O-azidomethyl-dCTP
Incorporation efficiency [1]: > 90%

B1: Endo V: Human Endonuclease V (Endo V) NEB (protein, UniProt Q8N8Q3 1-282, looked up)
Endonuclease V: MALEAAGGPPEETLSLWKREQARLKAHVVDRDTEAWQRDPAFSGLQRVGGVDVSFVKGDSVRACASLVVLSFPELEVVYEESRMVSLTAPYVSGFLAFREVPFLLELVQQLREKEPGLMPQVLLVDGNGVLHHRGFGVACHLGVLTDLPCVGVAKKLLQVDGLENNALHKEKIRLLQTRGDSFPLLGDSGTVLGMALRSHDRSTRPLYISVGHRMSLEAAVRLTCCCCRFRIPEPVRQADICSREHIRKSLGLPGPPTPRSPKAQRPVACPKGDSGESSALC
yield of cleaved DNA (cleaved to uncleaved DNA ratio) (DNA containing inosine [4]; positive control that contained both full length strands): 80%
DNA cleavage yield (DNA containing inosine [4]; with a helper strand): > 99%
yield of cleaved DNA (DNA containing inosine [4]; without a helper strand): > 99%
yield of digested DNA (Hairpin Oligonucleotide; after 5 minutes): ~98%
yield of digested DNA (Hairpin Oligonucleotide; after 10 minutes): ~99%
yield of digested DNA (Hairpin Oligonucleotide; after 30 minutes): ~99%
yield of digested DNA (Hairpin Oligonucleotide; after 1 hr): ~99%
